US10633704B2, “Diagnostic and immunotherapy compositions and methods for disease states mediated by inhibitor-resistant CD8 T-cells” (priority 2010, dated 2020)
Entries after “also recorded” stand apart in the source; their conditions may differ.

Tested on: CD8bm12-1 T cell clone
Test: Proliferation assay (3H-thymidine) of CsA/RAPA-resistant CD8 T cell clone CD8bm12-1 activated by immobilized anti-CD3 without or with anti-CD28
Format: cell-based, mouse (C57BL/6)
Protocol: Proliferation assays were done with anti-CD3 (145-2Cl 1) without or with anti-CD28 (37.51). Antibodies in 50 μl of PBS/well were used to coat 96-well tissue culture plates (Costar) overnight at 4° C. Antibodies were shaken off and wells washed 1× with 150 μl of RPMI complete media prior to their use in proliferation assays. Experimental wells were pulsed with 0.5 μCi/well ^3H-thymidine (ICN, Costa Mesa, Calif.) for 10-12 hours at 24-36 or 36-48 hours of the culture cycle. Cyclosporine A (Sigma Chemical Co.; St. Louis, Mo.) dissolved in 200 proof ethanol and CH-223191 (Calbiochem; San Diego, Calif.) dissolved in dimethylsulfoxide were used at indicated concentrations. The no treatment controls in each experiment included vehicle controls for both ethanol and dimethylsulfoxide.
FIGS. 6A and 6B show proliferation plots of CD8bm1 (▪) and CD8bm12-1 (●), both activated by immobilized anti-CD3 and exposed to a full range of cyclosporine A (the results shown in FIGS. 6A and 6B result from two separate experiments conducted).

Cc1ccccc1N=Nc1ccc(NC(=O)c2ccnn2C)c(C)c1 [CH-223191]
effect on proliferation of CD8bm12-1 (media with 1 ug/ml CsA, anti-CD3, CH-223191 3 uM): no effect
effect on proliferation of CD8bm12-1 (media with 1 ug/ml CsA, anti-CD3, CH-223191 10 uM): moderate inhibitory effect
effect on proliferation of CD8bm12-1 (media with 1 ug/ml CsA, anti-CD3, CH-223191 30 uM): dramatic inhibitory effect; also recorded: completely blocked
effect on proliferation of CD8bm12-1 (media with 1 ug/ml CsA, anti-CD3 and anti-CD28, CH-223191 30 uM): completely blocked proliferation
effect on proliferation of CD8bm12-1 (media without CsA, anti-CD3, CH-223191 at 30 uM, 10 uM or 3 uM): no discernable negative effect
effect on proliferation of CD8bm12-1 (media without CsA, anti-CD3 and anti-CD28, CH-223191): little discernable effect
